From US20150258105A1, “METHODS FOR ACUTE AND LONG-TERM TREATMENT OF ALCOHOL DEPENDENCE” (DemeRx, Inc., priority 2014, published 2015)
“Also recorded” adds a separate entry of the source.

Legend:
[1] = Pharmacokinetics of noribogaine in healthy volunteers, ascending single oral dose (plasma, LCMSMS); conditions: for AUC0-216 / AUC0-∞ / Cmax / Tmax / t1/2 / CL/F: fasted healthy volunteers, mean (SD), n = 6; for mean AUC/24 hr / mean AUC/24: fasting conditions
[2] = system: healthy, drug-free male volunteers; experiment: Pupillometry (pupillary miosis) in healthy volunteers; type: in vivo, human
Experimental: (§1) Pulse oximetry and capnography data were collected continuously using a GE Carescape B650 monitoring system from 2 hours prior to dosing and until six hours after dosing, and thereafter at 12, 24, 48 and 72 hours post-dosing. […] Pupillary miosis was assessed by pupillometry.
Summary statistics (means, standard deviations, and coefficients of variation) were determined for each dose group for safety laboratory test data, ECG and pharmacokinetic parameters, and pharmacodynamic variables. Categorical variables were analysed using counts and percentages. Dose-proportionality of AUC and Cmax was assessed using linear regression. The effect of dose on pharmacodynamic parameter values over time was assessed using two-factor analysis of variance (ANOVA). Pairwise comparisons (with Tukey-Kramer adjustment) between each dose group to the placebo were conducted at each time point using the least squares estimates obtained from the ANOVA, using SAS Proc Mixed (SAS ver 6.0).

[3] = system: healthy, drug-free male volunteers; experiment: Safety and tolerability of noribogaine in healthy humans (adverse events, vital signs, ECG); type: in vivo, human
Experimental: as §1
(§2) Safety and tolerability of noribogaine were tested in the group of volunteers from Example 1. […] Safety evaluations included clinical monitoring, recording of adverse events (AEs), safety laboratory tests, vital signs, ECG telemetry from −2 h to 6 h after dosing, and 12-lead electrocardiograms (ECGs) up to 216 hours post-dosing.

[4] = system: patients dependent on alcohol; experiment: Effect of noribogaine on withdrawal from alcohol in humans; type: in vivo, human; conditions: single oral dose of 2 mg/kg, at least 2 hours after last alcohol use; self-evaluation and clinical observation
Experimental: Six patients are orally administered a single dose of 2 mg/kg noribogaine, and three patients receive placebo in a randomized, placebo-controlled, double-blind trial. All patients are dependent on alcohol. Treatment is administered at least 2 hours after last alcohol use.

[5] = system: opioid-dependent participants; experiment: QT interval prolongation (ΔQTc1) in opioid-dependent participants; type: in vivo, human; conditions: 60, 120, 180 mg, first 24 hours post administration
Experimental: Patients' QT intervals were evaluated at regular time points throughout the study.

[6] = Pharmacokinetics in opioid-dependent patients, Phase IB study (serum noribogaine); conditions: 60, 120, 180 mg cohorts
[7] = system: opioid-dependent participants; experiment: Treatment emergent adverse events in opioid-dependent participants, single dose
[8] = system: opioid-dependent participants; experiment: Time to resumption of opioid substitution treatment (OST) in opioid-dependent participants; type: in vivo, human; conditions: single 180 mg dose
[9] = system: healthy, drug-free male volunteers; experiment: Cold pressor test (analgesic effect) in healthy volunteers; type: in vivo, human
Experimental: Analgesic effect was assessed based on duration of hand immersion in ice water and on visual analog scale (VAS) pain scores upon hand removal from the water bath.
as §2

[10] = system: opioid-dependent participants; experiment: Opiate withdrawal scales (COWS, SOWS, OOWS) in opioid-dependent participants; type: in vivo, human; conditions: first six hours following dosing
Experimental: Patients were evaluated based on the Clinical Opiate Withdrawal Scale (COWS), Subjective Opiate Withdrawal Scale (SOWS), and Objective Opiate Withdrawal Scale (OOWS) scoring systems over the period of time between administration of noribogaine (or placebo) until resumption of OST. These scales are outlined in Guidelines for the Psychosocially Assisted Pharmacological Treatment of Opioid Dependence, World Health Organization, Geneva (2009), Annex 10, which is incorporated herein by reference in its entirety. The scales measure the intensity of withdrawal symptoms, based on clinical, subjective, and objective indicia.

[11] = 30 mg single oral noribogaine dose, plasma
[12] = 60 mg single oral noribogaine dose, plasma
[13] = across dose groups, healthy volunteers, plasma
[14] = after adjusting for baseline differences, p>0.9

SMILES: CC[C@H]1C[C@@H]2C[C@H]3c4[nH]c5ccc(OC6OC(C(=O)O)C(O)C(O)C6O)cc5c4CCN(C2)[C@@H]13 (some centres unmarked) [Noribogaine glucuronide, noribogaine glucuronide]
- AUC0-216 [1, 11]: 25.7 (9.1) ng · hr/ml
- AUC0-∞ [1, 11]: 25.8 (9.3) ng · hr/ml
- Cmax [1, 11]: 1.8 (0.6) ng/ml
- Tmax [1, 11]: 3.0 (0.6) hr
- t1/2 [1, 11]: 20.6 (4.9) hr
- AUC0-216 [1, 12]: 65.0 (21.5) ng · hr/ml
- AUC0-∞ [1, 12]: 67.1 (21.9) ng · hr/ml
- Cmax [1, 12]: 4.1 (1.2) ng/ml
- Tmax [1, 12]: 3.8 (1.2) hr
- t1/2 [1, 12]: 23.1 (3.0) hr
- mean half-life estimates [1, 13]: 21 to 23 h
- time of peak concentrations after oral noribogaine dosing [1, 13]: 3 to 4 h
- time by which detected in plasma of all subjects ([1]; after 30 mg or 60 mg oral noribogaine, healthy volunteers): ≤ 0.75 h
- proportion of noribogaine glucuronide Cmax and AUC relative to noribogaine ([1]; both dose groups (30 mg and 60 mg)): 3-4%

SMILES: CC[C@H]1CC2C[C@H]3c4[nH]c5ccc(O)cc5c4CCN(C2)C13 [noribogaine]
- CL/F ([1]; 3 mg single oral noribogaine dose, plasma): 41.4 (7.0) L/h
- CL/F ([1]; 10 mg single oral noribogaine dose, plasma): 42.3 (12.0) L/h
- CL/F [1, 11]: 46.9 (16.4) L/h
- Tmax ([1]; 30 mg single oral noribogaine dose, plasma, listed as noribogaine free base): 1.75 h
- CL/F [1, 12]: 34.0 (11.4) L/h
- dose dependence of Cmax and AUC ([1]; 3-60 mg single oral doses, healthy volunteers): increased linearly with dose
- Volume of distribution ([1]; across dose groups (3-60 mg), healthy volunteers): 1417 to 3086 L
- time of peak concentrations after oral noribogaine dosing [1, 13]: 2 to 3 h
- absorption after oral dosing ([1]; healthy volunteers): rapidly absorbed
- mean AUC/24 hr ([1]; single dose of 3 mg noribogaine free base, healthy volunteers): 3.1 ng/mL
- mean AUC/24 hr ([1]; single dose of 10 mg noribogaine free base, healthy volunteers): 10.6 ng/mL
- mean AUC/24 ([1]; single dose of 30 mg noribogaine free base, healthy volunteers): 29.2 ng/mL
- mean AUC/24 ([1]; single dose of 60 mg noribogaine free base, healthy volunteers): 61 ng/mL
- pupillary constriction ([2]; 3-60 mg single oral doses, dark-adapted pupil diameter up to 216 hours): no evidence of pupillary constriction
- pupil diameter, each dose group versus placebo (ANOVA) [2, 14]: no statistically significant differences
- number of adverse events reported ([3]; 3 mg dose group, by two subjects): five
- number of adverse events reported ([3]; 10 mg dose group, by a single subject): one
- number of adverse events reported ([3]; 30 mg dose group, by a single subject): one
- oximetry, capnography, respiratory rate ([3]; 3-60 mg, healthy volunteers): no changes in oximetry or capnography, or changes in respiratory rate
- vital signs and safety laboratory tests ([3]; 3-60 mg, healthy volunteers): no changes in vital signs or safety laboratory tests of note
- QTcF values >500 msec ([3]; 3-60 mg, healthy volunteers, ECGs up to 216 hours post-dosing): no QTcF values >500 msec at any time
- Adverse events, Mild ([3]; Dose 3 mg, healthy volunteers): Dizziness; also recorded: Epistaxis; also recorded: Headache; also recorded: Back pain
- Adverse events, Moderate ([3]; Dose 3 mg, healthy volunteers): Headache
- Adverse events, Mild ([3]; Dose 10 mg, healthy volunteers): Headache
- Adverse events, Mild ([3]; Dose 30 mg, healthy volunteers): Headache
- intensity of adverse events ([3]; all dose groups, all resolved prior to study completion): mild-moderate intensity
- single increase in QTcF ([3]; one subject dosed with 10 mg, at 24 hours post-dosing): > 60 ms
- symptoms of alcohol withdrawal compared to placebo [4]: fewer and/or less severe symptoms of alcohol withdrawal
- QT interval prolongation (ΔQTc1) [5]: dose-dependent increase in QT interval prolongation
- dose dependence of maximum serum concentration (Cmax) [6]: increased in a dose-dependent manner
- AE: Catheter Site Infection ([7]; 60 mg single dose, N = 6): 0
- AE: Catheter Site Pain ([7]; 60 mg single dose, N = 6): 0
- AE: Catheter Site Related Reaction ([7]; 60 mg single dose, N = 6): 0
- AE: Cellulitis ([7]; 60 mg single dose, N = 6): 0
- AE: Diarrhoea ([7]; 60 mg single dose, N = 6): 0
- AE: Dry Mouth ([7]; 60 mg single dose, N = 6): 0
- AE: Ear and Labyrinth Disorders ([7]; 60 mg single dose, N = 6): 0
- AE: Epistaxis ([7]; 60 mg single dose, N = 6): 0
- AE: Euphoric Mood ([7]; 60 mg single dose, N = 6): 0
- AE: General Disorders and Administration Site Conditions ([7]; 60 mg single dose, N = 6): 0
- AE: Hyperaesthesia ([7]; 60 mg single dose, N = 6): 0
- AE: Infections and Infestations ([7]; 60 mg single dose, N = 6): 0
- AE: Limb Discomfort ([7]; 60 mg single dose, N = 6): 0
- AE: Malaise ([7]; 60 mg single dose, N = 6): 0
- AE: Nausea ([7]; 60 mg single dose, N = 6): 0
- AE: Oropharyngeal Pain ([7]; 60 mg single dose, N = 6): 0
- AE: Pseudoparalysis ([7]; 60 mg single dose, N = 6): 0
- AE: Respiratory, Thoracic and Mediastinal Disorders ([7]; 60 mg single dose, N = 6): 0
- AE: Rhinorrhoea ([7]; 60 mg single dose, N = 6): 0
- AE: Skin Discomfort ([7]; 60 mg single dose, N = 6): 0
- AE: Skin Irritation ([7]; 60 mg single dose, N = 6): 0
- AE: Skin and Subcutaneous Tissue Disorders ([7]; 60 mg single dose, N = 6): 0
- AE: Somnoience ([7]; 60 mg single dose, N = 6): 0
- AE: Tinnitus ([7]; 60 mg single dose, N = 6): 0
- AE: Tremor ([7]; 60 mg single dose, N = 6): 0
- AE: Urinary Tract Infection ([7]; 60 mg single dose, N = 6): 0
- AE: Vomiting ([7]; 60 mg single dose, N = 6): 0
- frequency of headaches ([7]; 60 mg treatment group): frequent
- frequency of headaches ([7]; 120 mg dose group): attenuated
- AE: Back Pain ([7]; 120 mg single dose, N = 6): 0
- AE: Catheter Site Infection ([7]; 120 mg single dose, N = 6): 0
- AE: Catheter Site Related Reaction ([7]; 120 mg single dose, N = 6): 0
- AE: Depressed Mood ([7]; 120 mg single dose, N = 6): 0
- AE: Dry Eye ([7]; 120 mg single dose, N = 6): 0
- AE: Dyspepsia ([7]; 120 mg single dose, N = 6): 0
- AE: Euphoric Mood ([7]; 120 mg single dose, N = 6): 0
- AE: Limb Discomfort ([7]; 120 mg single dose, N = 6): 0
- AE: Malaise ([7]; 120 mg single dose, N = 6): 0
- AE: Musculoskeletal and Connective Tissue Disorders ([7]; 120 mg single dose, N = 6): 0
- AE: Psychiatric Disorders ([7]; 120 mg single dose, N = 6): 0
- AE: Somnoience ([7]; 120 mg single dose, N = 6): 0
- AE: Urinary Tract Infection ([7]; 120 mg single dose, N = 6): 0
- frequency of headaches ([7]; 180 mg dose group): attenuated
- AE: Catheter Site Infection ([7]; 180 mg single dose, N = 6): 0
- AE: Catheter Site Pain ([7]; 180 mg single dose, N = 6): 0
- AE: Depressed Mood ([7]; 180 mg single dose, N = 6): 0
- AE: Diarrhoea ([7]; 180 mg single dose, N = 6): 0
- AE: Dry Eye ([7]; 180 mg single dose, N = 6): 0
- AE: Dyspepsia ([7]; 180 mg single dose, N = 6): 0
- AE: Ear and Labyrinth Disorders ([7]; 180 mg single dose, N = 6): 0
- AE: Epistaxis ([7]; 180 mg single dose, N = 6): 0
- AE: Euphoric Mood ([7]; 180 mg single dose, N = 6): 0
- AE: Hyperaesthesia ([7]; 180 mg single dose, N = 6): 0
- AE: Malaise ([7]; 180 mg single dose, N = 6): 0
- AE: Oropharyngeal Pain ([7]; 180 mg single dose, N = 6): 0
- AE: Pseudoparalysis ([7]; 180 mg single dose, N = 6): 0
- AE: Psychiatric Disorders ([7]; 180 mg single dose, N = 6): 0
- AE: Respiratory, Thoracic and Mediastinal Disorders ([7]; 180 mg single dose, N = 6): 0
- AE: Rhinorrhoea ([7]; 180 mg single dose, N = 6): 0
- AE: Skin Discomfort ([7]; 180 mg single dose, N = 6): 0
- AE: Skin Irritation ([7]; 180 mg single dose, N = 6): 0
- AE: Skin and Subcutaneous Tissue Disorders ([7]; 180 mg single dose, N = 6): 0
- AE: Somnoience ([7]; 180 mg single dose, N = 6): 0
- AE: Tinnitus ([7]; 180 mg single dose, N = 6): 0
- AE: Tremor ([7]; 180 mg single dose, N = 6): 0
- hallucinatory effects ([7]; 60, 120 or 180 mg single dose, opioid-dependent participants): no hallucinatory effects
- Time to resumption of OST compared with untreated patients and 60 mg [8]: still longer than untreated patients (7 hours, not shown) or those administered 60 mg noribogaine
- analgesic effect in the cold pressor test ([9]; 3-60 mg single oral doses, 1° C. water): no analgesic effect
- VAS pain scores, each dose group versus placebo (ANOVA) ([9]; after adjusting for baseline differences, p=0.17): no statistically significant differences
- duration of hand immersion, each dose group versus placebo (ANOVA) [9, 14]: no statistically significant differences
- withdrawal symptoms (COWS, OOWS, SOWS scores) ([10]; 120 mg, prior to resumption of OST): fewer withdrawal symptoms than the other patients
- withdrawal symptoms versus placebo (COWS, OOWS, SOWS scores) ([10]; 60, 120, 180 mg): placebo generally experienced more withdrawal symptoms than patients who were administered noribogaine
